The results in this text go back to US12673944B2, “Compounds having inhibitory activity against glucosylceramide synthase or pharmaceutically acceptable salt thereof, processes for preparing the same, and pharmaceutical compositions comprising the same” (YUHAN CORPORATION, priority 2019, dated 2026).

Read-outs that look alike come from different tables or passages of the source.

As a reminder, the IC50 is the concentration needed to halve the response being measured.

The target of assay [1] is T1, glucosylceramide synthase (GCS) (Homo sapiens, UniProt Q16739).
T1 construct: The obtained supernatant was used; host or cells: A549 cells (lysate supernatant after sonication)
T1 sequence (Q16739 1-394): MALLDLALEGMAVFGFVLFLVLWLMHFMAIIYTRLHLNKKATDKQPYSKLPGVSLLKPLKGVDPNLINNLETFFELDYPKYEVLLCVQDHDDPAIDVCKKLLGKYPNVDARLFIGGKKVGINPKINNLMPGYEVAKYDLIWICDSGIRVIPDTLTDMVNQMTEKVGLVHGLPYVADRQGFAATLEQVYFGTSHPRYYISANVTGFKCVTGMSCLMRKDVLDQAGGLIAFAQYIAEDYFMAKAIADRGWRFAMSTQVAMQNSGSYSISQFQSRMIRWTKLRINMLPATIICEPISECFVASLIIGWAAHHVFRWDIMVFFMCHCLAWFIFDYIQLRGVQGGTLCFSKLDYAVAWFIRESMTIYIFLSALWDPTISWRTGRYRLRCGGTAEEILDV
Kind of assay: GCS enzyme inhibition assay (A549 cell lysate, NBD C6-ceramide, HPLC fluorescence). It is filed as biochemical. The settings on record: inhibitory activity against GCS, 37° C., 90 minutes. Here is the method:
Ibiglustat, known as a GCS inhibitor, was used as a control.
After the cells attached to the culture dish were washed with phosphate buffered saline (PBS), the cells were scraped off with a cell scraper and then centrifuged (4000 rpm, 3 min, 4° C.) to collect the cells in a 50 ml tube. The cell pellets were suspended in a lysis buffer (50 mM HEPES, pH 7.3, containing 1× the protease/phosphatase inhibitor cocktail), lysed by sonication, and then the lysate was centrifuged (13000 rpm, 10 min, 4° C.). The obtained supernatant was used for the quantitative analysis of proteins. The amount of proteins was measured using the BCA protein assay kit, using bovine serum albumin as a standard.
Enzymatic reactions were initiated by sequentially adding the following reaction materials to a 96 deep-well plate. Thereafter, the enzymatic reactions were performed at 37° C. for 90 minutes.
The enzymatic reactions were stopped by adding 100 μl of chloroform/methanol (2:1, v/v). After vortexing for 15 seconds, each mixture was centrifuged (4000 rpm, 10 min, 18° C.). The lower layer (50 μl) was transferred to a new 96 deep-well plate and dried with a reduced concentrator.
Data analysis was performed by the following equations. % Area(Sample)=Area(GlcCer)/[Area(Cer)+Area(GlcCer)]×100 % GCS activity=[Area(Sample)−Area(ibiglustat)]/[Area(DMSO)−Area(ibiglustat)]×100

Assay [2] has as its system GM1 production in Jurkat cells. Description: cells. It is filed as cell-based.

With `O=C(NC1CCOc2cc(-c3cccc(F)c3)ccc21)O[C@@H]1CN2CCC1CC2` (stereo partly drawn) [Example 1, (S)-quinuclidin-3-yl (7-(3-fluorophenyl)chroman-4-yl)carbamate], the IC50 in assay [1] worked out at 2.6 nM; in assay [2] (Homo sapiens, Jurkat, 72 h), 1.69 nM.

In the case of `O=C(NC1CCOc2cc(-c3cccc(Cl)c3)ccc21)O[C@@H]1CN2CCC1CC2` (stereo partly drawn) [Example 2, (S)-quinuclidin-3-yl (7-(3-chlorophenyl)chroman-4-yl)carbamate], the IC50 in assay [1] worked out at 0.7 nM; in assay [2] (Homo sapiens, Jurkat, 72 h), 3.47 nM.

Turning to `O=C(NC1CCOc2cc(-c3cccc(C(F)(F)F)c3)ccc21)O[C@@H]1CN2CCC1CC2` (stereo partly drawn) [Example 3, (S)-quinuclidin-3-yl (7-(3-(trifluoromethyl)phenyl)chroman-4-yl)carbamate], the IC50 in assay [1] was 0.7 nM; in assay [2] (Homo sapiens, Jurkat, 72 h), 2.13 nM.

`O=C(NC1CCOc2cc(-c3cccc(OC(F)(F)F)c3)ccc21)O[C@@H]1CN2CCC1CC2` (stereo partly drawn) [Example 4, (S)-quinuclidin-3-yl (7-(3-(trifluoromethoxy)phenyl)chroman-4-yl)carbamate]: the IC50 in assay [1] was 0.7 nM; in assay [2] (Homo sapiens, Jurkat, 72 h), 1.08 nM.

Consider `COCOc1ccccc1-c1ccc2c(c1)OCCC2NC(=O)O[C@@H]1CN2CCC1CC2` (stereo partly drawn) [Example 5, (S)-quinuclidin-3-yl (7-(2-(methoxymethoxy)phenyl)chroman-4-yl)carbamate], for which the IC50 in assay [1] was determined as 3.71 nM; in assay [2] (Homo sapiens, Jurkat, 72 h), 29.2 nM.

Consider `COCOc1cccc(-c2ccc3c(c2)OCCC3NC(=O)O[C@@H]2CN3CCC2CC3)c1` (stereo partly drawn) [Example 6, (S)-quinuclidin-3-yl (7-(3-(methoxymethoxy)phenyl)chroman-4-yl)carbamate], for which the IC50 was found to be 0.67 nM in assay [1] and 7.18 nM in assay [2] (Homo sapiens, Jurkat, 72 h).

Take `COCCOc1ccccc1-c1ccc2c(c1)OCCC2NC(=O)O[C@@H]1CN2CCC1CC2` (stereo partly drawn) [Example 7, (S)-quinuclidin-3-yl (7-(2-(2-methoxyethoxy)phenyl)chroman-4-yl)carbamate]: the IC50 was 3.28 nM in assay [1] and 34.1 nM in assay [2] (Homo sapiens, Jurkat, 72 h).

Turning to `COCCOc1cccc(-c2ccc3c(c2)OCCC3NC(=O)O[C@@H]2CN3CCC2CC3)c1` (stereo partly drawn) [Example 8, (S)-quinuclidin-3-yl (7-(3-(2-methoxyethoxy)phenyl)chroman-4-yl)carbamate], the IC50 in assay [1] turned out to be 0.48 nM; in assay [2] (Homo sapiens, Jurkat, 72 h), 3.59 nM.

Regarding `O=C(NC1CCOc2cc(-c3ccccc3F)ccc21)O[C@@H]1CN2CCC1CC2` (stereo partly drawn) [Example 9, (S)-quinuclidin-3-yl (7-(2-fluorophenyl)chroman-4-yl)carbamate], the IC50 in assay [1] was determined as 1.81 nM; in assay [2] (Homo sapiens, Jurkat, 72 h), 2.83 nM.

Regarding `O=C(NC1CCOc2cc(-c3ccccc3Cl)ccc21)O[C@@H]1CN2CCC1CC2` (stereo partly drawn) [Example 10, (S)-quinuclidin-3-yl (7-(2-chlorophenyl)chroman-4-yl)carbamate], the IC50 in assay [1] is 2.02 nM; in assay [2] (Homo sapiens, Jurkat, 72 h), 7.23 nM.

`O=C(NC1CCOc2cc(-c3ccccc3C(F)(F)F)ccc21)O[C@@H]1CN2CCC1CC2` (stereo partly drawn) [Example 11, (S)-quinuclidin-3-yl (7-(2-(trifluoromethyl)phenyl)chroman-4-yl)carbamate]: the IC50 in assay [1] amounted to 10.4 nM; in assay [2] (Homo sapiens, Jurkat, 72 h), 18.2 nM.

With `O=C(NC1CCOc2cc(-c3ccccc3OC(F)(F)F)ccc21)O[C@@H]1CN2CCC1CC2` (stereo partly drawn) [Example 12, (S)-quinuclidin-3-yl (7-(2-(trifluoromethoxy)phenyl)chroman-4-yl)carbamate], the IC50 in assay [1] was found to be 4.28 nM; in assay [2] (Homo sapiens, Jurkat, 72 h) it was 3.28 nM.

With `O=C(NC1CCOc2cc(-c3ccc(F)cc3)ccc21)O[C@@H]1CN2CCC1CC2` (stereo partly drawn) [Example 13, (S)-quinuclidin-3-yl (7-(4-fluorophenyl)chroman-4-yl)carbamate], the concentration for half-maximal inhibition (IC50) in assay [1] worked out at 8.54 nM; in assay [2] (Homo sapiens, Jurkat, 72 h), 42.8 nM.

Take `O=C(NC1CCOc2cc(-c3ccc(Cl)cc3)ccc21)O[C@@H]1CN2CCC1CC2` (stereo partly drawn) [Example 14, (S)-quinuclidin-3-yl (7-(4-chlorophenyl)chroman-4-yl)carbamate]: the IC50 was 9.67 nM in assay [1] and 42.1 nM in assay [2] (Homo sapiens, Jurkat, 72 h).

Take `O=C(NC1CCOc2cc(-c3ccc(C(F)(F)F)cc3)ccc21)O[C@@H]1CN2CCC1CC2` (stereo partly drawn) [Example 15, (S)-quinuclidin-3-yl (7-(4-(trifluoromethyl)phenyl)chroman-4-yl)carbamate]: the IC50 in assay [1] turned out to be 11.7 nM; in assay [2] (Homo sapiens, Jurkat, 72 h), 38.9 nM.

Consider `O=C(NC1CCOc2cc(-c3ccc(OC(F)(F)F)cc3)ccc21)O[C@@H]1CN2CCC1CC2` (stereo partly drawn) [Example 16, (S)-quinuclidin-3-yl (7-(4-(trifluoromethoxy)phenyl)chroman-4-yl)carbamate], for which the IC50 came out at 9.4 nM in assay [1] and 27.8 nM in assay [2] (Homo sapiens, Jurkat, 72 h).

Turning to `COc1ccccc1-c1ccc2c(c1)OCCC2NC(=O)O[C@@H]1CN2CCC1CC2` (stereo partly drawn) [Example 17, (S)-quinuclidin-3-yl (7-(2-methoxyphenyl)chroman-4-yl)carbamate], the IC50 in assay [1] stood at 1.41 nM; in assay [2] (Homo sapiens, Jurkat, 72 h), 5.5 nM.

With `COc1cccc(-c2ccc3c(c2)OCCC3NC(=O)O[C@@H]2CN3CCC2CC3)c1` (stereo partly drawn) [Example 18, (S)-quinuclidin-3-yl (7-(3-methoxyphenyl)chroman-4-yl)carbamate], the IC50 in assay [1] amounted to 1.54 nM; in assay [2] (Homo sapiens, Jurkat, 72 h), 6.98 nM.

`COc1ccc(-c2ccc3c(c2)OCCC3NC(=O)O[C@@H]2CN3CCC2CC3)cc1` (stereo partly drawn) [Example 19, (S)-quinuclidin-3-yl (7-(4-methoxyphenyl)chroman-4-yl)carbamate]: the IC50 in assay [1] worked out at 8.32 nM; in assay [2] (Homo sapiens, Jurkat, 72 h), 30.5 nM.

Turning to `CCOc1ccccc1-c1ccc2c(c1)OCCC2NC(=O)O[C@@H]1CN2CCC1CC2` (stereo partly drawn) [Example 20, (S)-quinuclidin-3-yl (7-(2-ethoxyphenyl)chroman-4-yl)carbamate], the IC50 in assay [1] was 2.86 nM; in assay [2] (Homo sapiens, Jurkat, 72 h), 19.1 nM.

For `CCOc1cccc(-c2ccc3c(c2)OCCC3NC(=O)O[C@@H]2CN3CCC2CC3)c1` (stereo partly drawn) [Example 21, (S)-quinuclidin-3-yl (7-(3-ethoxyphenyl)chroman-4-yl)carbamate], the IC50 in assay [1] is 0.67 nM; in assay [2] (Homo sapiens, Jurkat, 72 h), 4.56 nM.

For `CCOc1ccc(-c2ccc3c(c2)OCCC3NC(=O)O[C@@H]2CN3CCC2CC3)cc1` (stereo partly drawn) [Example 22, (S)-quinuclidin-3-yl (7-(4-ethoxyphenyl)chroman-4-yl)carbamate], the IC50 in assay [1] worked out at 4 nM; in assay [2] (Homo sapiens, Jurkat, 72 h), 34.2 nM.

Regarding `CC(C)c1cccc(-c2ccc3c(c2)OCCC3NC(=O)O[C@@H]2CN3CCC2CC3)c1` (stereo partly drawn) [Example 23, (S)-quinuclidin-3-yl (7-(3-isopropylphenyl)chroman-4-yl)carbamate], the IC50 in assay [1] is 0.48 nM; in assay [2] (Homo sapiens, Jurkat, 72 h), 0.57 nM.

Take `CC(C)c1ccc(-c2ccc3c(c2)OCCC3NC(=O)O[C@@H]2CN3CCC2CC3)cc1` (stereo partly drawn) [Example 24, (S)-quinuclidin-3-yl (7-(4-isopropylphenyl)chroman-4-yl)carbamate]: the 50% inhibitory concentration (IC50) in assay [1] is 4.88 nM; in assay [2] (Homo sapiens, Jurkat, 72 h) it was 10.7 nM.

On to `CC(C)(C)c1cccc(-c2ccc3c(c2)OCCC3NC(=O)O[C@@H]2CN3CCC2CC3)c1` (stereo partly drawn) [Example 25, (S)-quinuclidin-3-yl (7-(3-(tert-butyl)phenyl)chroman-4-yl)carbamate], for which the IC50 in assay [1] was 0.65 nM; in assay [2] (Homo sapiens, Jurkat, 72 h) it was 1.07 nM.

Take `CC(C)(C)c1ccc(-c2ccc3c(c2)OCCC3NC(=O)O[C@@H]2CN3CCC2CC3)cc1` (stereo partly drawn) [Example 26, (S)-quinuclidin-3-yl (7-(4-(tert-butyl)phenyl)chroman-4-yl)carbamate]: the concentration for half-maximal inhibition (IC50) in assay [1] stood at 10.2 nM; in assay [2] (Homo sapiens, Jurkat, 72 h), 23.3 nM.

For the molecule `O=C(NC1CCOc2cc(-c3cc(Cl)ccc3Cl)ccc21)O[C@@H]1CN2CCC1CC2` (stereo partly drawn) [Example 27, (S)-quinuclidin-3-yl (7-(2,5-dichlorophenyl)chroman-4-yl)carbamate], the IC50 in assay [1] was found to be 0.75 nM; in assay [2] (Homo sapiens, Jurkat, 72 h) it was 0.54 nM.

In the case of `O=C(NC1CCOc2cc(-c3ccc(Cl)c(Cl)c3)ccc21)O[C@@H]1CN2CCC1CC2` (stereo partly drawn) [Example 28, (S)-quinuclidin-3-yl (7-(3,4-dichlorophenyl)chroman-4-yl)carbamate], the IC50 came out at 5.19 nM in assay [1] and 24.1 nM in assay [2] (Homo sapiens, Jurkat, 72 h).

Regarding `CC1(C)COc2cc(-c3ccc(N4CCOCC4)c(F)c3)ccc2C1NC(=O)O[C@@H]1CN2CCC1CC2` (stereo partly drawn) [Example 204, (S)-quinuclidin-3-yl (7-(3-fluoro-4-morpholinophenyl)-3,3-dimethylchroman-4-yl)carbamate], the IC50 in assay [2] (read-out: IC50) was 0.31 nM.

For `CC1(C)CC(NC(=O)O[C@@H]2CN3CCC2CC3)c2cc(-c3cccc(F)c3)ccc2O1` (stereo partly drawn) [Example 294, (S)-quinuclidin-3-yl (6-(3-fluorophenyl)-2,2-dimethylchroman-4-yl)carbamate], the IC50 in assay [1] was 145 nM.
